Data on three molecules can be found in patent publication US11442072B2, “Method for measuring LDL aggregation” (Jenny and Antti Wihuri Foundation, priority 2018, dated 2022).

For one assay, the target named is T1, LDL particles (Homo sapiens, UniProt P04114).
T1 construct: from tissue; host or cells: human blood plasma (LDL fraction d=1.019-1.063 g/ml, ultracentrifugation)
Kind of assay: Ex vivo enrichment of LDL with phospholipid vesicles, then hrSMase-induced aggregation (DLS). Type of assay: biochemical. The following applies: LDL from four healthy volunteers, enriched with 1 mM phospholipid vesicles. How it is done: In the standard assay, LDL isolated from human plasma was extensively dialyzed against 20 mM MES buffer, pH 5.5, containing 150 mM NaCl and 50 μM ZnCl2 and its apoB-100 concentration was determined by ELISA (Mabtech). The sample was diluted with the same buffer to give a final concentration of 0.2 mg of apoB-100/ml and 75 μg/ml of hrSMase was added to LDL. The size of LDL was determined immediately and once every hour for up to 6-hours. An aliquot was taken at the same time points for phosphorylcholine measurement. The degree of SM hydrolysis was determined by measuring the amount of phosphorylcholine from the samples with Amplex Red reagent (Invitrogen).
To exchange LDL surface phospholipids, LDL (2 mg/ml) was incubated with phospholipid vesicles (1 mM phosphatidylcholine 18:1/16:0 (1-palmityl-2-oleyl-sn-glycero-3-phosphocholine), lysophosphatidylcholine 16:0 (1-Palmitoyl-2-Hydroxy-sn-Glycero-3-Phosphocoline) or sphingomyelin 16:0 (N-Palmitoyl-D-erythro-sphingosylphosphorylcholine) each from Avanti Polar Lipids) overnight at 37° C. in buffer A (5 mM Tris, 150 mM NaCl, 1 mM EDTA, pH 7.4). The vesicles had been prepared by sonicating 10 mM lipid solutions using a Branson Sonifier 250 sonicator (6 times for 5 minutes) in buffer A. Vesicles were removed with sequential ultracentrifugation (d<1.019 g/ml KBr) repeated twice. […]

In a further assay the target is T2, apoB-100 (Homo sapiens, UniProt P04114).
T2 construct: from tissue; host or cells: human blood plasma (LDL fraction d=1.019-1.063 g/ml, ultracentrifugation)
T2 sequence (P04114 28-4563): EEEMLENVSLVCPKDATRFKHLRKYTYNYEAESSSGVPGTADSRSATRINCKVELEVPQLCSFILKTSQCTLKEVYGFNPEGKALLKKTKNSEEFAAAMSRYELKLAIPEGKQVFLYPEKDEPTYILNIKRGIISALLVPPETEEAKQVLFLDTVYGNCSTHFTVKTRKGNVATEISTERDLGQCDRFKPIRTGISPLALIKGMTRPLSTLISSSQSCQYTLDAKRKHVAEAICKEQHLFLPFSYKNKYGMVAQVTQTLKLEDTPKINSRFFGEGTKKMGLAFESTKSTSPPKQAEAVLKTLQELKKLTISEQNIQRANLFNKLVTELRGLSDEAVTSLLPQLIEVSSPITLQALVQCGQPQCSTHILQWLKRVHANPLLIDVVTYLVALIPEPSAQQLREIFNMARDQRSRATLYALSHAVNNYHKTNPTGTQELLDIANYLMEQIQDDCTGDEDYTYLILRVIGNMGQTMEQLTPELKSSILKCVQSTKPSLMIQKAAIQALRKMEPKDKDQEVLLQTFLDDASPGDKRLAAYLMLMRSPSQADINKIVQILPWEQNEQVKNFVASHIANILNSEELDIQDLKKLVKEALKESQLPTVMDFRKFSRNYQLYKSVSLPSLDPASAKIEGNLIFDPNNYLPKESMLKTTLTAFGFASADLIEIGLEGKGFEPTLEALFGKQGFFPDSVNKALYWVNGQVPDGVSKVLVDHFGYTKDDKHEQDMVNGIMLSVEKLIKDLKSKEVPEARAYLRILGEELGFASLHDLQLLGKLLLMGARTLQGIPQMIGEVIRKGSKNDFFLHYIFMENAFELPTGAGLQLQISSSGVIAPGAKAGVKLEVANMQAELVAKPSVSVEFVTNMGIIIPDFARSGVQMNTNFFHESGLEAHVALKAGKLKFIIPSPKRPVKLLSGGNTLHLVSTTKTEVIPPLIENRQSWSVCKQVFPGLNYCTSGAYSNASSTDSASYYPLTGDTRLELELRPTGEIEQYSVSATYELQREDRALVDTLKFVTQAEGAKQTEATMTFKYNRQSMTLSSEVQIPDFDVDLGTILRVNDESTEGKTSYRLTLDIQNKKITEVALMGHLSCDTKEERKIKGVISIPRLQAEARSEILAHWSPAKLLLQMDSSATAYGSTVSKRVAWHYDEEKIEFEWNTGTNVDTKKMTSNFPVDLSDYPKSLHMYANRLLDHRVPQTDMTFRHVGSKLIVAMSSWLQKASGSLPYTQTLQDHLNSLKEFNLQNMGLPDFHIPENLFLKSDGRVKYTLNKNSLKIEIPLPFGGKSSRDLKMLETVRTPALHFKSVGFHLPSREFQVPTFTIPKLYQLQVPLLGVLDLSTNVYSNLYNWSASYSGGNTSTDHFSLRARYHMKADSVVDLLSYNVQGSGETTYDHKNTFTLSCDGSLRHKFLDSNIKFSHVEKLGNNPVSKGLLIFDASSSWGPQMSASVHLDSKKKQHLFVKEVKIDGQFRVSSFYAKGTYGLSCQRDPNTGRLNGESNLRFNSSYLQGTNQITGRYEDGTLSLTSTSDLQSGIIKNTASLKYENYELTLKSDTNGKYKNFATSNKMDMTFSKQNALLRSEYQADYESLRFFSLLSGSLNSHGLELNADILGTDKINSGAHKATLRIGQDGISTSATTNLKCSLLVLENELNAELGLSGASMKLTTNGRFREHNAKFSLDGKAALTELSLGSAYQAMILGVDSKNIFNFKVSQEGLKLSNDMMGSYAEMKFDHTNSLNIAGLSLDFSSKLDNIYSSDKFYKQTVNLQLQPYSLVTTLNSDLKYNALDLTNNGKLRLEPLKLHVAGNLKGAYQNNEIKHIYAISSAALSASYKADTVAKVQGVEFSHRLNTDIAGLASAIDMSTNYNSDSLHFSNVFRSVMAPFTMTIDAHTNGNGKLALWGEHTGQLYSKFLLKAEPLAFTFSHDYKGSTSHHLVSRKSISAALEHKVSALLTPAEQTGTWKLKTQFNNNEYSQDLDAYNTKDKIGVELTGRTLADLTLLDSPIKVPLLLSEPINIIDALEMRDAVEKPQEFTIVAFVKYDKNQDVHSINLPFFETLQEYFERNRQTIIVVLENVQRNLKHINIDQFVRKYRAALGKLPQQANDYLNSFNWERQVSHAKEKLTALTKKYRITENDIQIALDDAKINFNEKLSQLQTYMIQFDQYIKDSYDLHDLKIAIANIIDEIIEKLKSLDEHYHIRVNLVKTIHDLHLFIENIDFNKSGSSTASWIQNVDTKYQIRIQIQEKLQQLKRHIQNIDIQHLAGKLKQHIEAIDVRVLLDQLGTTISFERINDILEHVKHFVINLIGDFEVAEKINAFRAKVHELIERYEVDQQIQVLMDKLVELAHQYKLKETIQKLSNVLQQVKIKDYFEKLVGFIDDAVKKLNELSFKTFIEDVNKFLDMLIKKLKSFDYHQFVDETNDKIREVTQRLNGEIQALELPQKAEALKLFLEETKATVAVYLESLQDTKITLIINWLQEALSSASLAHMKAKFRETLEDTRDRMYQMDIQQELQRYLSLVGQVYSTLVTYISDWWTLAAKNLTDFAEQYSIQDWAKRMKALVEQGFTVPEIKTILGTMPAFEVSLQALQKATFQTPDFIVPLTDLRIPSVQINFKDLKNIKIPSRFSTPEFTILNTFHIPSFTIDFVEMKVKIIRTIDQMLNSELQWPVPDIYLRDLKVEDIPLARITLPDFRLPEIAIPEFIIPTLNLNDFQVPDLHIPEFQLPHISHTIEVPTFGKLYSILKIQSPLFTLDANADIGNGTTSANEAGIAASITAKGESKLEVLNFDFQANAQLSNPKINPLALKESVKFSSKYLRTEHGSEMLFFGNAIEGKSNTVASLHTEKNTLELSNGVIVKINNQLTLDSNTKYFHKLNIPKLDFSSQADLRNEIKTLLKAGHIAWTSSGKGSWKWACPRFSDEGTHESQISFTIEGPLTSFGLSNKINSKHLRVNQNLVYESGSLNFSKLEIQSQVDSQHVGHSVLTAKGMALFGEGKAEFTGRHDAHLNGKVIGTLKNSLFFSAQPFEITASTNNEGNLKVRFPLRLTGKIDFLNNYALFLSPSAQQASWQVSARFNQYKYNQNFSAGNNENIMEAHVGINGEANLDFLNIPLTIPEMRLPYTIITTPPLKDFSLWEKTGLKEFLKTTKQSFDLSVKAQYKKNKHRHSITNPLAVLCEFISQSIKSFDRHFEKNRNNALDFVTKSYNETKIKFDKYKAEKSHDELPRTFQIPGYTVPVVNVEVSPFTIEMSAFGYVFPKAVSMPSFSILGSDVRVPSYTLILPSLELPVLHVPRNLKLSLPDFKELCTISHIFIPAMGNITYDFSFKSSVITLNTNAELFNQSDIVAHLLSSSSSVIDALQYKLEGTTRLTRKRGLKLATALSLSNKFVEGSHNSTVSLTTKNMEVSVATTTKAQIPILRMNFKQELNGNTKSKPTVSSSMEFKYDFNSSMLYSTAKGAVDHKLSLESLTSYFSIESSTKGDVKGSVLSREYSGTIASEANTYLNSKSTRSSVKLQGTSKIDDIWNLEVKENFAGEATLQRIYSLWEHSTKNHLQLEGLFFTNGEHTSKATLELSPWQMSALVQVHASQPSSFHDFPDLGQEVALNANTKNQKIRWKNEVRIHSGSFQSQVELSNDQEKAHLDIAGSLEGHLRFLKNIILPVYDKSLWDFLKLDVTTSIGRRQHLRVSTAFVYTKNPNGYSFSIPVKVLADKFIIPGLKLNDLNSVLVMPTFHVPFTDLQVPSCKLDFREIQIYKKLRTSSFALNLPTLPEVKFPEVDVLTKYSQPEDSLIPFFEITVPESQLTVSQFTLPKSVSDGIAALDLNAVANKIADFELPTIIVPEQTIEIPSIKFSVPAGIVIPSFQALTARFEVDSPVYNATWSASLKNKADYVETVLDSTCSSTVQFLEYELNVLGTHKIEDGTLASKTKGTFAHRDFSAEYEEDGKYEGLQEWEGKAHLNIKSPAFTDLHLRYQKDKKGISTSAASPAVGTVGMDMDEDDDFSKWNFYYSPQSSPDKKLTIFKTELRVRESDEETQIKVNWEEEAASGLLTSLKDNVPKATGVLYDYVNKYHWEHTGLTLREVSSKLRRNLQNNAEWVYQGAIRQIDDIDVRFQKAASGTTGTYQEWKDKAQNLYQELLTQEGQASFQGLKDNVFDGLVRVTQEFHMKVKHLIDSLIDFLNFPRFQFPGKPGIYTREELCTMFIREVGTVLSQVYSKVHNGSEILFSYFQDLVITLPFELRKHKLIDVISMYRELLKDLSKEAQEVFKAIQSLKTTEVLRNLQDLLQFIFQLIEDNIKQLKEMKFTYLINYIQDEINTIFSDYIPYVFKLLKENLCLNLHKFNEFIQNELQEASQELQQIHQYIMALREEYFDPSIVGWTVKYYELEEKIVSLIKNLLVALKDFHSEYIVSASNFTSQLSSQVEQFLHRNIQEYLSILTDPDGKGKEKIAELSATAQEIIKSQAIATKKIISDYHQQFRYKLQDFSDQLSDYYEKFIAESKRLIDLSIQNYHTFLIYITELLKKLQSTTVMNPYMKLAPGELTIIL
Kind of assay: Circular dichroism of phospholipid-enriched LDL after SMase treatment. Type of assay: biochemical. Particulars: lipid-enriched LDL, SMase 30 min. How it is done:
Samples of control and SM-, PC- and LPC-enriched LDL particles (1 mg/ml) were treated with SMase for 30-min and lipolysis was stopped by 10 mM EDTA. The LDL particles (50 μg/ml) were analyzed by CD as described previously (11,12).
In general terms: Circular dichroism is widely used to follow secondary structure.

Another assay relates to LDL. Kind of assay: LDL aggregation induced by oxidation, proteolysis or lipolysis, followed by DLS. Type of assay: biochemical, human. The following applies: LDL 0.5 mg/ml from four donors; hrSMase at pH 5.5, other agents at pH 7.4. How it is done: Firstly, inter-individual variability in LDL aggregation using agents that have been reported to cause LDL aggregation was tested. LDL aggregation was induced at LDL concentration of 0.5 mg/ml by oxidation (incubation with 5 μM CuSO4), by proteolysis (incubation with 0.1 mg/ml α-chymotrypsin from bovine pancreas (Sigma-Aldrich)), or by lipolysis (incubation with 50 mU/ml phospholipase A2 (PLA2) from bee venom (Sigma-Aldrich)), with 200 mU/ml SMase from Bacillus cereus (bcSMase, Sigma-Aldrich)), or with 75 μg/ml hrSMase (a kind gift from Genzyme or produced in house). The incubation buffer was 20 mM Tris-HCl, pH 7.4, containing 150 mM NaCl and 2 mM CaCl2 and 2 mM MgCl2, except in the case of hrSMase, where the incubation buffer was 20 mM MES, pH 5.5, containing 150 mM NaCl and 50 μM ZnCl2. LDL size was determined at the beginning of the incubation and aggregate size was determined at the indicated time points by dynamic light scattering (DLS) (Zetasizer Nano, Malvern Instruments, Malvern Works, UK or Wyatt DynaPro Plate Reader 11, Wyatt Technology, California, USA).

T1 sequence (P04114 28-4563): as above

Take `CCCCCCCCCCCCCCCC(=O)OC[C@@H](O)COP(=O)([O-])OCC[N+](C)(C)C` [LPC 16:0, 1-Palmitoyl-2-Hydroxy-sn-Glycero-3-Phosphocoline]: the “Susceptibility of lipid-enriched LDL to aggregate during incubation with hrSMase, vs control LDL” value on LDL particles is “less susceptible”.

For the molecule `CCCCCCCCCCCCC/C=C/[C@@H](O)[C@H](COP(=O)([O-])OCC[N+](C)(C)C)NC(=O)CCCCCCCCCCCCCCC` [SM 18:1/16:0, N-Palmitoyl-D-erythro-sphingosylphosphorylcholine], the “Susceptibility of lipid-enriched LDL to aggregate during incubation with hrSMase, vs control LDL” value at LDL particles is “more susceptible”. In addition, the “SMase-induced conformational changes in apoB-100” value on apoB-100 is given as “enhanced”.

B1: bcSMase: SMase from Bacillus cereus (Sigma-Aldrich) (protein, UniProt P09599 28-333, looked up)
Sphingomyelinase C: DTSTDQNNTLKVMTHNVYMLSTNLYPNWGQSQRADLIGAADYIKNQDVVILNEVFDNSASDRLLGNLKKEYPNQTAVLGRSNGNEWDKTLGSYSSSTPEDGGVAIVSKWPIVEKIQYVFAKGCGPDNLSNKGFVYTKIKKNDRFVHVIGTHLQAEDSMCGKTSPASVRTNQLKEIQDFIKNKNIPNDEYVLFGGDMNVNKINAENNSDSEYASMFKTLHASIPSYTGHTATWDATTNSIAKYNFPDSPAEYLDYIIASKDHANPSFIENKVLQPKSPQWTVTSWLKKYTYDDYSDHYPVAATISMK
B1: in the assay with LDL, the “Aggregation of LDL” value is “caused aggregation”.
